# Results: patent US6921824B1, “Ruthenium dimeric complexes suitable as antimetastatic and antineoplastic agents” (priority 1999, dated 2005)
# Marks after values point to notes of the source that are not given here.
# Legend:
# MCa mammary carcinoma = experiment: Pre-surgical treatment: prevention of lung metastases formation in mice with MCa mammary carcinoma; type: in vivo; settings: for Lung metastases Number % T/C / Lung metastases weight % T/C: Treated/Control; for Lung metastases Number mean / Lung metastases weight (mg) mean: evaluated day 29; for Body weight % var: variation day 11 to day 16 vs untreated controls; for Selectivity of action on lung metastases versus primary tumour: MCa mammary carcinoma model of the CBA mouse; for Number of lung metastases (in words) / Weight of lung metastases (in words): at two dose levels, pre-surgical treatment
# Description: In vivo tests of the activity of the compounds according to the present invention in mice affected from MCa mammary carcinoma: prevention activity in the formation of lung metastases.
# Five groups of CBA kin female mice weighing 23±3 g were inoculated with […] viable cells (as determined by the Trypan blue exclusion) of MCa mammary carcinoma in 0.05 ml Dulbecco's pH 7.4 buffered calcium and magnesium-free solution (PBS), by intramuscular injection with a sterile insulin syringe. The tumour cells were derived from donors of the same strain, injected with the same tumour cells, following the same procedures 2 weeks before. The suspension of tumour cells was prepared in PBS by mechanically mincing the tumour mass obtained from donor mice, and further removing tissue debris and cells by, respectively, filtration through a double layer of sterile gauze and centrifugation at 250× g for 10 minutes. Kin animals were obtained from a colony from Chester Beatthy from London (UK) which were grown in the University of Trieste animal house accordingly to the procedures accepted for the rearing of kin animals. The MCa mammary carcinoma tumour cell-line derived from a stock, stored in liquid nitrogen, of tumour cells obtained originally from Rudjer Boskovic Institute of Zagreb (HR).
# From day 11 to day 16, after tumour cells implantation, five mice groups were treated intraperitoneally with a sterile insulin syringe, respectively with: • Group 1 Control (10 animals): 10 ml/kg of body weight/day of sterile and pyrogen-free physiological solution; • Group 2 (two subgroups a,b of five animals each): 7.5 (a), 15 (b) mg/kg of body weight/day of the compound prepared as described in Example 4 in sterile and pyrogen-free physiological solution; • Group 3 (2 subgroups c,d of five animals each): 15 (c), 30 (d) mg/kg of body weight/day of the compound prepared as described in Example 7 in sterile and pyrogen-free physiological solution; • Group 4 (2 subgroups e,f of 5 animals each): 25 (e), 50 (f) mg/kg of body weight/day of the compound prepared as described in Example 8 in sterile and pyrogen-free physiological solution; • Group 5 (2 subgroups g,h of 5 animals each): 12.5 (g), 25 (h) mg/kg of body weight/day of the compound prepared as described in Example 10 in sterile and pyrogen-free physiological solution.
# The administered dosages were either approximated to LD0.1, or to half of it or to a quarter of it, as calculated separately in animals of the same strain and gender and with the same body weight, for an intraperitoneal treatment lasting 6 consecutive days, according to the method of Lichtfield and Wilcoxon, and with an observation time of 10 days since the last dose.
# On day 17 since tumour cells implantation, the primary tumour was surgically removed, after general anesthesia of the animals by intraperitoneal injection of 125 mg/kg of Ketamine.
# On day 29 since tumour cells implantation, the mice were sacrificed by cervical dislocation for the evaluation of lung metastases. The lungs were abducted from the animals immediately after sacrifice, divided in single lobes which then examined immediately with a low-magnification microscope equipped with a graduated ocular-grid for the measurement of the size of the metastases in which the a and b orthogonal axes (a≦b) were identified. Metastases were classified by size and the metastatic tumour weight for each animal was calculated as the sum of each single metastasis weight, each of them considered as a rotation solid developed around the above mentioned axes and calculated according to the formula (π/6)·a^2·b. The experimental data obtained were then processed by appropriate statistical tests. […]
# [1] = system: murine TS/A adenocarcinoma cells; experiment: In vitro cytotoxicity, SRB test (protein synthesis); type: cell-based
# Description: (§1) In vitro cytotoxicity of complexes of the present invention on murine TS/A adenocarcinoma cells.
# (§2) 4×10^3 murine TS/A adenocarcinoma cells resuspended in 200 μl RPMI-1640 medium supplemented with 10% FCS (fetal calf serum), 2 mM glutamine and 50 μg/ml gentamicin sulphate, were seeded in a 96-wells plate. After 24 hours incubation at 37° C., in 5% CO2, the complexes as described in example 4 (A), in example 7 (B), in example 8 (C) and in example 10 (D), each solubilised in RPMI-1640 medium supplemented with 5% FCS, 2 mM glutamine and 50 μg/ml gentamicin sulphate, were added to the cells, each at a final concentration of 10^−4, 10^−5 and 10^−6 M. Cell viability tests were performed after 24, 48 and 72 hours of exposure to the compounds by assessing both the effect on protein synthesis and on mitochondrial activity by means of colorimetric assays, respectively the solphorodamine B test (SRB) and the MTT analysis. Each value (optical density) is the average percentage ±S.E. versus the untreated controls.
# (§3) Values such as *p<0.05, **p<0.01 indicate average values statistically different from the controls. Analysis of Variance and Dunnet test were used in the comparison analysis.
# (§4) The results are reported in Table 3, wherein both the effect on protein synthesis (SRB) and the mitochondrial activity (MTT) are reported for each complexes tested at different dosages after different exposure time.
# [2] = system: murine TS/A adenocarcinoma cells; experiment: In vitro cytotoxicity, MTT analysis (mitochondrial activity); type: cell-based
# Description: as §1, §2, §3, §4
# [3] = LD0.05 determination, intraperitoneal treatment for 6 consecutive days (Lichtfield and Wilcoxon); type: in vivo; settings: observation time 10 days since last dose
# Description: The dosages corresponding to the LD0.05, calculated separately in animals of the same strain and gender and having the same body weight, was administered intraperitoneally for 6 consecutive days, according to the method of Lichtfield and Wilcoxon, and with an observation time of 10 days since last dose.
# [4] = 12.5 mg/kg/die i.p. day 11-16, pre-surgical
# [5] = 25 mg/kg/die i.p. day 11-16, pre-surgical
# [6] = 15 mg/kg/die i.p. day 11-16, pre-surgical
# [7] = 30 mg/kg/die i.p. day 11-16, pre-surgical
SMILES,Selectivity of action on lung metastases versus primary tumour (MCa mammary carcinoma),Number of lung metastases (in words) (MCa mammary carcinoma),Weight of lung metastases (in words) (MCa mammary carcinoma),"SRB optical density, average percentage ±S.E. versus untreated controls ([1]; 10^−4 M, exposure time 24 h)","SRB optical density, average percentage ±S.E. versus untreated controls ([1]; 10^−4 M, exposure time 48 h)","SRB optical density, average percentage ±S.E. versus untreated controls ([1]; 10^−4 M, exposure time 72 h)","SRB optical density, average percentage ±S.E. versus untreated controls ([1]; 10^−5 M, exposure time 24 h) [%]","SRB optical density, average percentage ±S.E. versus untreated controls ([1]; 10^−5 M, exposure time 48 h) [%]","SRB optical density, average percentage ±S.E. versus untreated controls ([1]; 10^−5 M, exposure time 72 h) [%]","SRB optical density, average percentage ±S.E. versus untreated controls ([1]; 10^−6 M, exposure time 24 h) [%]","SRB optical density, average percentage ±S.E. versus untreated controls ([1]; 10^−6 M, exposure time 48 h) [%]","SRB optical density, average percentage ±S.E. versus untreated controls ([1]; 10^−6 M, exposure time 72 h) [%]","MTT optical density, average percentage ±S.E. versus untreated controls ([2]; 10^−4 M, exposure time 24 h) [%]","MTT optical density, average percentage ±S.E. versus untreated controls ([2]; 10^−4 M, exposure time 48 h)","MTT optical density, average percentage ±S.E. versus untreated controls ([2]; 10^−4 M, exposure time 72 h)","MTT optical density, average percentage ±S.E. versus untreated controls ([2]; 10^−5 M, exposure time 24 h) [%]","MTT optical density, average percentage ±S.E. versus untreated controls ([2]; 10^−5 M, exposure time 48 h) [%]","MTT optical density, average percentage ±S.E. versus untreated controls ([2]; 10^−5 M, exposure time 72 h) [%]","MTT optical density, average percentage ±S.E. versus untreated controls ([2]; 10^−6 M, exposure time 24 h) [%]","MTT optical density, average percentage ±S.E. versus untreated controls ([2]; 10^−6 M, exposure time 48 h) [%]",also measured
"C[SH](C)(=O)[Ru-]([Cl])([Cl])([Cl])([Cl])[n+]1ccc(CCc2cc[n+]([Ru-]([Cl])([Cl])([Cl])([Cl])[SH](C)(C)=O)cc2)cc1.[Na+].[Na+] [Example 10, [Na]2[trans-RuCl4(Me2SO)]2(μ-etbipy)]",act selectively on lung metastases,marked reduction,even more marked reduction,47 ± 2** %,62 ± 14** %,73 ± 2** %,81 ± 8,94 ± 3,95 ± 1,102 ± 9,81 ± 5,93 ± 5,76 ± 9,65 ± 4** %,76 ± 4** %,97 ± 12,93 ± 2,84 ± 5,114 ± 7,109 ± 4,"Lung metastases Number % T/C (MCa mammary carcinoma; [4]): 15%; Lung metastases weight % T/C (MCa mammary carcinoma; [4]): 6%; Lung metastases Number mean (MCa mammary carcinoma; [4]): 8.0; Lung metastases weight (mg) mean (MCa mammary carcinoma; [4]): 4.6 mg; Body weight % var (MCa mammary carcinoma; 12.5 mg/kg/die i.p. day 11-16): −2.8%; Lung metastases Number % T/C (MCa mammary carcinoma; [5]): 25%; Lung metastases weight % T/C (MCa mammary carcinoma; [5]): 1%; Lung metastases Number mean (MCa mammary carcinoma; [5]): 13.0; Lung metastases weight (mg) mean (MCa mammary carcinoma; [5]): 1.2 mg; Body weight % var (MCa mammary carcinoma; 25 mg/kg/die i.p. day 11-16): −1.1%; MTT optical density, average percentage ±S.E. versus untreated controls ([2]; 10^−6 M, exposure time 72 h): 88 ± 4%; LD0.05 [3]: 52 mg/kg of body weight/day"
"C[SH](C)(=O)[Ru-]([Cl])([Cl])([Cl])([Cl])[n+]1ccc[n+]([Ru-]([Cl])([Cl])([Cl])([Cl])[SH](C)(C)=O)c1.[Na+].[Na+] [Example 7, [Na]2[trans-RuCl4(Me2SO)]2(μ-pym)]",act selectively on lung metastases,marked reduction,even more marked reduction,58 ± 2** %,73 ± 8* %,61 ± 2** %,95 ± 9,108 ± 5,100 ± 1,101 ± 9,100 ± 3,95 ± 7,90 ± 10,71 ± 12* %,60 ± 1** %,117 ± 1,104 ± 9,93 ± 9,110 ± 2,110 ± 13,"Lung metastases Number % T/C (MCa mammary carcinoma; [6]): 10%; Lung metastases weight % T/C (MCa mammary carcinoma; [6]): 2%; Lung metastases Number mean (MCa mammary carcinoma; [6]): 5.0; Lung metastases weight (mg) mean (MCa mammary carcinoma; [6]): 1.7 mg; Body weight % var (MCa mammary carcinoma; 15 mg/kg/die i.p. day 11-16): −1.4%; Lung metastases Number % T/C (MCa mammary carcinoma; [7]): 6%; Lung metastases weight % T/C (MCa mammary carcinoma; [7]): 1%; Lung metastases Number mean (MCa mammary carcinoma; [7]): 3.0; Lung metastases weight (mg) mean (MCa mammary carcinoma; [7]): 0.8 mg; Body weight % var (MCa mammary carcinoma; 30 mg/kg/die i.p. day 11-16): −2.7%; MTT optical density, average percentage ±S.E. versus untreated controls ([2]; 10^−6 M, exposure time 72 h): 104 ± 8%; LD0.05 [3]: 28 mg/kg of body weight/day"
